Measurements from the supplement of paper PMC5908809.

Key:
[1] = system: normal NK cells expanded with K562-aAPC; assay: drug sensitivity score (DSS) (DSS units); higher = more sensitive; extreme values may be limits of the assay; settings: 72 h; IL-2 2.5 ng/mL
Method: (§1)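 Drug sensitivity and resistance testing on K562-aAPC-expanded normal NK cells: 5 concentrations (10-fold steps over a 10,000-fold range), 72 h at 37 °C, viability by CellTiter-Glo normalised to DMSO and benzethonium chloride controls; DSS from the fitted curve.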

[2] = system: normal primary NK cells, pool 3 (3 donors) (IL-2 2.5 ng/mL); assay: as above; settings: 72 h
KAI3 (IL-2 2.5 ng/mL) [3] = assay: as above; settings: 72 h
[4] = system: normal primary NK cells, pool 1 (3 donors) (IL-2 2.5 ng/mL); assay: as above; settings: 72 h
SNK-6 (IL-2 2.5 ng/mL) [5] = assay: as above; settings: 72 h
KHYG-1 (IL-2 2.5 ng/mL) [6] = assay: as above; settings: 72 h
[7] = system: normal primary NK cells, pool 2 (3 donors) (IL-2 2.5 ng/mL); assay: as above; settings: 72 h
NK-92 (IL-2 2.5 ng/mL) [8] = assay: as above; settings: 72 h
YT (IL-2 2.5 ng/mL) [9] = assay: as above; settings: 72 h
DERL-7 (IL-2 2.5 ng/mL) [10] = assay: as above; settings: 72 h
[11] = system: normal primary NK cells, pool 1 (3 donors), resting (IL-2 0 ng/mL); assay: as above; settings: 72 h
NKL (IL-2 2.5 ng/mL) [12] = assay: as above; settings: 72 h
NK-YS (IL-2 2.5 ng/mL) [13] = assay: as above; settings: 72 h
IMC-1 (IL-2 20 ng/mL) [14] = assay: as above; settings: 72 h
[15] = system: normal NK cells expanded with K562-aAPC; assay: percent inhibition of viability; higher = more inhibition; settings: 72 h, IL-2 2.5 ng/mL
Method: as §1

[16] = system: normal primary NK cells, pool 3 (3 donors) (IL-2 2.5 ng/mL); assay: as above; settings: 72 h
KAI3 (IL-2 2.5 ng/mL) [17] = assay: as above; settings: 72 h
[18] = system: normal primary NK cells, pool 1 (3 donors) (IL-2 2.5 ng/mL); assay: as above; settings: 72 h
SNK-6 (IL-2 2.5 ng/mL) [19] = assay: as above; settings: 72 h
KHYG-1 (IL-2 2.5 ng/mL) [20] = assay: as above; settings: 72 h
[21] = system: normal primary NK cells, pool 2 (3 donors) (IL-2 2.5 ng/mL); assay: as above; settings: 72 h
NK-92 (IL-2 2.5 ng/mL) [22] = assay: as above; settings: 72 h
YT (IL-2 2.5 ng/mL) [23] = assay: as above; settings: 72 h
DERL-7 (IL-2 2.5 ng/mL) [24] = assay: as above; settings: 72 h
[25] = system: normal primary NK cells, pool 1 (3 donors), resting (IL-2 0 ng/mL); assay: as above; settings: 72 h
NKL (IL-2 2.5 ng/mL) [26] = assay: as above; settings: 72 h
NK-YS (IL-2 2.5 ng/mL) [27] = assay: as above; settings: 72 h
IMC-1 (IL-2 20 ng/mL) [28] = assay: as above; settings: 72 h

O=C(CCCCCCNC(=O)c1cnc(N(c2ccccc2)c2ccccc2)nc1)NO [Rocilinostat] (max concentration tested 10000 nM)
Settings	drug sensitivity score
DERL-7 (IL-2 2.5 ng/mL) [10]	8.01
IMC-1 (IL-2 20 ng/mL) [14]	6.83
KAI3 (IL-2 2.5 ng/mL) [3]	12
KHYG-1 (IL-2 2.5 ng/mL) [6]	11.5
NK-92 (IL-2 2.5 ng/mL) [8]	10.4
NK-YS (IL-2 2.5 ng/mL) [13]	9.02
NKL (IL-2 2.5 ng/mL) [12]	12.8
SNK-6 (IL-2 2.5 ng/mL) [5]	9.9
YT (IL-2 2.5 ng/mL) [9]	8.53
[1]	9.32
[2]	6.65
[4]	10.4
[7]	8.8
[11]	13.4

percent inhibition of viability [%]
Settings	1 nM	10 nM	100 nM	1000 nM	10000 nM
DERL-7 (IL-2 2.5 ng/mL) [24]	-3.48	-3.35	-1.28	14.9	99.9
IMC-1 (IL-2 20 ng/mL) [28]	-4.44	-8.29	-0.57	8.19	100
KAI3 (IL-2 2.5 ng/mL) [17]	0.64	-3.56	4.44	55.4	96.6
KHYG-1 (IL-2 2.5 ng/mL) [20]	3.34	0.58	-3.42	47.2	101
NK-92 (IL-2 2.5 ng/mL) [22]	-11.1	-18.3	11.4	41	102
NK-YS (IL-2 2.5 ng/mL) [27]	2.13	-8.18	0.48	22.7	98.8
NKL (IL-2 2.5 ng/mL) [26]	-10.5	-16	-8.09	62.8	104
SNK-6 (IL-2 2.5 ng/mL) [19]	-5.08	-17.2	-1.48	31.4	97.9
YT (IL-2 2.5 ng/mL) [23]	0.06	-7.38	-4.05	18.3	101
[15]	-3.43	-1.33	-2.48	24.8	99.9
[16]	-3.33	-0.54	6.26	8.12	96.7
[18]	2.06	3.65	16.7	40.9	97.5
[21]	-7.32	-6.43	5.49	23.4	94
[25]	8.2	-4.24	18.1	59.2	90.9

O=C(O)CCCc1ccc(N(CCCl)CCCl)cc1 [Chlorambucil] (max concentration tested 10000 nM)
Settings	drug sensitivity score
DERL-7 (IL-2 2.5 ng/mL) [10]	2
IMC-1 (IL-2 20 ng/mL) [14]	0.4
KAI3 (IL-2 2.5 ng/mL) [3]	7.66
KHYG-1 (IL-2 2.5 ng/mL) [6]	3.19
NK-92 (IL-2 2.5 ng/mL) [8]	3.79
NK-YS (IL-2 2.5 ng/mL) [13]	6.96
NKL (IL-2 2.5 ng/mL) [12]	9.13
SNK-6 (IL-2 2.5 ng/mL) [5]	6.91
YT (IL-2 2.5 ng/mL) [9]	0
[1]	2.23
[2]	2.81
[4]	4.31
[7]	4.06
[11]	7.95

percent inhibition of viability [%]
Settings	1 nM	10 nM	100 nM	1000 nM	10000 nM
DERL-7 (IL-2 2.5 ng/mL) [24]	-3.58	-2.26	-1.57	2.26	35.3
IMC-1 (IL-2 20 ng/mL) [28]	-7.26	-1.26	-5.09	-7.21	20.6
KAI3 (IL-2 2.5 ng/mL) [17]	-12.3	0	13	21.6	84.8
KHYG-1 (IL-2 2.5 ng/mL) [20]	-4.53	-1.14	-2.99	-0.01	59
NK-92 (IL-2 2.5 ng/mL) [22]	-16.2	-10.6	-3.93	-0.43	69.5
NK-YS (IL-2 2.5 ng/mL) [27]	-6.87	-0.61	3.17	13.6	84.7
NKL (IL-2 2.5 ng/mL) [26]	-13	-7.71	-6.04	27.6	92.1
SNK-6 (IL-2 2.5 ng/mL) [19]	9.02	25.1	-1.14	10.8	92.4
YT (IL-2 2.5 ng/mL) [23]	-0.58	-2.33	-2.72	-5.92	9.19
[15]	-0.47	-10	-5.18	-1.85	46.2
[16]	-13.1	-5.69	-6.16	-0.15	53
[18]	-5.48	-9.5	0.36	3.15	70.4
[21]	-11.7	-6.52	-4.85	1.94	69.2
[25]	-14.6	-7.61	2.57	19.2	88.2
